Measured values as given in PMC9402538, “Rational design of a sensitivity-enhanced tracer for discovering efficient APC–Asef inhibitors” (Nature Communications, 2022).
Where a SMILES comes first, the peptide text is derived from it. The star is where a group is joined. Bz = O=C(c1ccccc1)*

Molecular target: T1, APC (303–739) (Homo sapiens, UniProt P25054)
T1 sequence (P25054 303-739): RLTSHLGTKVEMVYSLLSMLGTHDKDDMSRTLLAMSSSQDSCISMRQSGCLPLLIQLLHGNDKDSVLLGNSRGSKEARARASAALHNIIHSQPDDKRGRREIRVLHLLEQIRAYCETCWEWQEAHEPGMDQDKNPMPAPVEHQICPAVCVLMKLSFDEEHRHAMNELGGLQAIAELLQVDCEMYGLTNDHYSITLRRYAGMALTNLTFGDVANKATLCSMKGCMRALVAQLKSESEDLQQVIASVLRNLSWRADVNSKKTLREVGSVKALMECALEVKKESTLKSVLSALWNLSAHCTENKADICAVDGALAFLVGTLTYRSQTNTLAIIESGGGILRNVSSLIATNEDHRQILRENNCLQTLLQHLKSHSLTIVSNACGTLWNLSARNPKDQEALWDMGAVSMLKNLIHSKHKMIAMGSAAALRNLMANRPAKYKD
Assay: FP competitive assay using tracer 7
Type: binding
Conditions: for IC50: Table 3 source data
How it was run: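 Fluorescence polarization competition: APC (303–739) in 50 mM HEPES pH 7.5, 300 mM NaCl, 1 mM EDTA, 1 mM DTT, preincubated 1 h at room temperature with serially diluted peptides. FITC tracer 7 then added (400 nM stock) and FP read after 1.5 h at room temperature; IC50 by nonlinear regression, triplicates.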

## CC(C)C[C@H](NC(=O)[C@H](CO)NC(=O)[C@H](CCC(=O)O)NC(=O)CNC(=O)[C@H](C)NC(=O)c1ccccc1)C(=O)N[C@@H](Cc1ccc(O)cc1)C(=O)N[C@@H](CCC(=O)O)C(N)=O [MAI-511] (Bz-AGESLYE-NH2)
Conc. 0.0002 μM, individual repeats, Fig3b
  inhibition at 0.0002 µM: 1.5%
Conc. 0.0005 μM, individual repeats, Fig3b
  inhibition at 0.0005 µM: 1.2%
Conc. 0.001 μM, individual repeats, Fig3b
  inhibition at 0.001 µM: 1.9%
Conc. 0.002 μM, individual repeats, Fig3b
  inhibition at 0.002 µM: 1.5%
Conc. 0.0024 μM, individual repeats, Fig3b
  inhibition at 0.0024 µM: 1.1%
Conc. 0.0039 μM, individual repeats, Fig3b
  inhibition at 0.0039 µM: 2.5%
Conc. 0.0049 μM, individual repeats, Fig3b
  inhibition at 0.0049 µM: 1.1%
Conc. 0.006 μM, individual repeats, Fig3b
  inhibition at 0.006 µM: 4.7%
Conc. 0.0078 μM, individual repeats, Fig3b
  inhibition at 0.0078 µM: 5.3%
Conc. 0.0098 μM, individual repeats, Fig3b
  inhibition at 0.0098 µM: 6.1%
Conc. 0.012 μM, individual repeats, Fig3b
  inhibition at 0.012 µM: 7.9%
Conc. 0.0156 μM, individual repeats, Fig3b
  inhibition at 0.0156 µM: 8.5%
Conc. 0.0195 μM, individual repeats, Fig3b
  inhibition at 0.0195 µM: 11.3%
Conc. 0.024 μM, individual repeats, Fig3b
  inhibition at 0.024 µM: 16.8%
Conc. 0.0313 μM, individual repeats, Fig3b
  inhibition at 0.0313 µM: 22.7%
Conc. 0.0391 μM, individual repeats, Fig3b
  inhibition at 0.0391 µM: 22.5%
Conc. 0.049 μM, individual repeats, Fig3b
  inhibition at 0.049 µM: 31.3%
Conc. 0.0625 μM, individual repeats, Fig3b
  inhibition at 0.0625 µM: 39%
Conc. 0.0781 μM, individual repeats, Fig3b
  inhibition at 0.0781 µM: 39.5%
Conc. 0.098 μM, individual repeats, Fig3b
  inhibition at 0.098 µM: 49%
Conc. 0.125 μM, individual repeats, Fig3b
  inhibition at 0.125 µM: 56.2%
Conc. 0.1563 μM, individual repeats, Fig3b
  inhibition at 0.1563 µM: 58.3%
Conc. 0.195 μM, individual repeats, Fig3b
  inhibition at 0.195 µM: 67.3%
Conc. 0.25 μM, individual repeats, Fig3b
  inhibition at 0.25 µM: 72.5%
Conc. 0.3125 μM, individual repeats, Fig3b
  inhibition at 0.3125 µM: 72.1%
Conc. 0.391 μM, individual repeats, Fig3b
  inhibition at 0.391 µM: 80.1%
Conc. 0.5 μM, individual repeats, Fig3b
  inhibition at 0.5 µM: 83.2%
Conc. 0.625 μM, individual repeats, Fig3b
  inhibition at 0.625 µM: 82.5%
Conc. 0.781 μM, individual repeats, Fig3b
  inhibition at 0.781 µM: 86.3%
Conc. 1 μM, individual repeats, Fig3b
  inhibition at 1 µM: 90.6%
Conc. 1.25 μM, individual repeats, Fig3b
  inhibition at 1.25 µM: 89.5%
Conc. 1.563 μM, individual repeats, Fig3b
  inhibition at 1.563 µM: 91.5%
Conc. 2 μM, individual repeats, Fig3b
  inhibition at 2 µM: 95.4%
Conc. 2.5 μM, individual repeats, Fig3b
  inhibition at 2.5 µM: 93.6%
Conc. 3.125 μM, individual repeats, Fig3b
  inhibition at 3.125 µM: 93.5%
Conc. 5 μM, individual repeats, Fig3b
  inhibition at 5 µM: 95.7%
Conc. 6.25 μM, individual repeats, Fig3b
  inhibition at 6.25 µM: 94.1%
Conc. 10 μM, individual repeats, Fig3b
  inhibition at 10 µM: 96.6%
Conc. 12.5 μM, individual repeats, Fig3b
  inhibition at 12.5 µM: 95%
Conc. 20 μM, individual repeats, Fig3b
  inhibition at 20 µM: 97.1%
Conc. 25 μM, individual repeats, Fig3b
  inhibition at 25 µM: 95.6%
Conc. 50 μM, individual repeats, Fig3b
  inhibition at 50 µM: 94.9%
IC50(μM) Repeat 1, Repeat 1
  IC50: 0.0848 µM
IC50(μM) Repeat 2, Repeat 2
  IC50: 0.102 µM
IC50(μM) Repeat 3, Repeat 3
  IC50: 0.108 µM
IC50(μM) mean, mean of 3 repeats
  IC50: 0.0984 µM
Repeat 1, Conc. 0.0024 μM
  mean (FP signal, FigS5): 300.7
Repeat 1, Conc. 0.0049 μM
  mean (FP signal, FigS5): 300.5
Repeat 1, Conc. 0.0098 μM
  mean (FP signal, FigS5): 288
Repeat 1, Conc. 0.0195 μM
  mean (FP signal, FigS5): 274.7
Repeat 1, Conc. 0.0391 μM
  mean (FP signal, FigS5): 246.3
Repeat 1, Conc. 0.0781 μM
  mean (FP signal, FigS5): 203.3
Repeat 1, Conc. 0.1563 μM
  mean (FP signal, FigS5): 155.7
Repeat 1, Conc. 0.3125 μM
  mean (FP signal, FigS5): 120.7
Repeat 1, Conc. 0.625 μM
  mean (FP signal, FigS5): 94.3
Repeat 1, Conc. 1.25 μM
  mean (FP signal, FigS5): 76.7
Repeat 1, Conc. 2.5 μM
  mean (FP signal, FigS5): 66.3
Repeat 1, Conc. 5 μM
  mean (FP signal, FigS5): 61
Repeat 1, Conc. 10 μM
  mean (FP signal, FigS5): 58.7
Repeat 1, Conc. 20 μM
  mean (FP signal, FigS5): 57.3
Repeat 2, Conc. 0.0002 μM
  mean (FP signal, FigS5): 300.7
Repeat 2, Conc. 0.0005 μM
  mean (FP signal, FigS5): 301.3
Repeat 2, Conc. 0.001 μM
  mean (FP signal, FigS5): 299.7
Repeat 2, Conc. 0.002 μM
  mean (FP signal, FigS5): 300.7
Repeat 2, Conc. 0.0039 μM
  mean (FP signal, FigS5): 298
Repeat 2, Conc. 0.0078 μM
  mean (FP signal, FigS5): 291
Repeat 2, Conc. 0.0156 μM
  mean (FP signal, FigS5): 283
Repeat 2, Conc. 0.0313 μM
  mean (FP signal, FigS5): 247.3
Repeat 2, Conc. 0.0625 μM
  mean (FP signal, FigS5): 206.3
Repeat 2, Conc. 0.125 μM
  mean (FP signal, FigS5): 163
Repeat 2, Conc. 0.25 μM
  mean (FP signal, FigS5): 122
Repeat 2, Conc. 0.5 μM
  mean (FP signal, FigS5): 95.3
Repeat 2, Conc. 1 μM
  mean (FP signal, FigS5): 76.7
Repeat 2, Conc. 2 μM
  mean (FP signal, FigS5): 64.7
Repeat 3, Conc. 0.006 μM
  mean (FP signal, FigS5): 301.3
Repeat 3, Conc. 0.012 μM
  mean (FP signal, FigS5): 293
Repeat 3, Conc. 0.024 μM
  mean (FP signal, FigS5): 270
Repeat 3, Conc. 0.049 μM
  mean (FP signal, FigS5): 232.3
Repeat 3, Conc. 0.098 μM
  mean (FP signal, FigS5): 186.3
Repeat 3, Conc. 0.195 μM
  mean (FP signal, FigS5): 138.7
Repeat 3, Conc. 0.391 μM
  mean (FP signal, FigS5): 105.3
Repeat 3, Conc. 0.781 μM
  mean (FP signal, FigS5): 89.3
Repeat 3, Conc. 1.563 μM
  mean (FP signal, FigS5): 75.7
Repeat 3, Conc. 3.125 μM
  mean (FP signal, FigS5): 70.7
Repeat 3, Conc. 6.25 μM
  mean (FP signal, FigS5): 69
Repeat 3, Conc. 12.5 μM
  mean (FP signal, FigS5): 66.7
Repeat 3, Conc. 25 μM
  mean (FP signal, FigS5): 65
Repeat 3, Conc. 50 μM
  mean (FP signal, FigS5): 67
